# Source: patent US20060141047A1, “Methods and compositions for delivery of catecholic butanes for treatment of obesity” (priority 2003, published 2006)
# Several values for one entry are separate records, joined by “and”; a condition that tells them apart may be missing. Identical values can stand only once. Like-named read-outs stand apart in the source and are kept apart here.
# Tests used:
# [1] = test system: mammary carcinoma MX-1 xenograft; settings: intratumor injection or topical application, athymic mice, U.S. Pat. No. 5,008,294; cited from earlier work
# [2] = test system: HPV-16 transformed immortal mouse epithelial cells (C3); settings: intratumor injection, separately or together, U.S. Pat. No. 6,417,234 and 6,214,874; cited from earlier work
# [3] = Tissue distribution of 3H-M4N after a single intraperitoneal or intravenous injection; type: in vivo, mice; settings: 3 hours post-injection, i.p. or i.v.
# Protocol: M4N Tissue Distribution Studies Using 3H—M4N. […] The insoluble pellet was then further extracted with EtOH.
# A mixture of tritiated and cold M4N was dissolved in a 6% Cremaphor EL, 6% ethanol, 88% saline solvent then injected intraperitoneally (i.p.) and intravenously (i.v.) via tail vein into mice. At 3 hours post-injection, the organs and blood were harvested and weighed, and the M4N was extracted. […] M4N was successfully distributed to various organs at 3 hours post-injection by both i.p. and i.v. routes of administration. […] Corroborating this, a very similar profile of distribution was observed using an oral route of administration described below. The majority of the recovered radioactivity localized to the gastrointestinal tract organs: the stomach, small intestine, caecum, and large intestine, in the range of 3 μg to 20 μg of M4N per gram of tissue.
# [4] = Maximum amount of M4N dissolved in Cremaphor EL/ethanol/saline solvent; type: physicochemical; settings: 6% Cremaphor EL, 6% ethanol, 88% saline
# Protocol: To assess the toxicity of prolonged intraperitoneal systemic treatment with M4N, and to determine a safe dosage for the following xenograft experiments, the following toxicity test was performed.
# [5] = Short-term oral feeding, M4N tissue levels by HPLC; type: in vivo, mice
# Protocol: (§1) Tissue Distribution and Toxicity Analysis Following Short-Term and Long-Term Oral Feeding. For short-term feeding experiments, 30 mg of M4N dissolved in 300 μL castor oil was orally administered to each of 6 mice. At 2 h, 4 h, and 8 h post-administration time points, 2 mice were sacrificed, the organs and blood were collected, and the M4N extracted and quantitated as described below. In long-term feeding experiments, mice were fed food balls consisting of M4N dissolved in corn oil and Basal Mix (Harlan Teklad; Madison, Wis.; Cat. # TD 02273) for 14 weeks. Food balls weighed 9 g and contained 242 mg M4N each. Two mice, one male and one female, were reserved for long-term drug retention studies; and fourteen mice, both male and female, were used for long-term drug toxicity studies. At the end of feeding, mice were sacrificed, the organs and blood were collected, and the M4N extracted and quantitated as described below.
# M4N Extraction and HPLC Analysis Following Oral Feeding. […] The dried samples were then analyzed quantitatively by HPLC and M4N was identified by mass spectroscopy using pure M4N as a standard.
# In samples from short-term fed mice, dialysis was performed to further purify M4N from the tissue extracts. […] The dialysates were dried on benchtop and in a speed-vac, then analyzed by HPLC.
# HPLC Quantitation of M4N. […]
# [6] = type: in vivo; settings: for % Weight Change / Weight on End Date: M4N-fed mice
# Protocol: as §1, with “In long-term feeding experiments, mice were fed food balls consisting of M4N dissolved in corn oil and Basal Mix (Harlan Teklad; Madison, Wis.; Cat. # TD 02273) for 14 weeks.” left out
# In particular, weight was measured on a bi-weekly or monthly basis. […] However, to assess long-term drug toxicity, only the mice that were treated for more than 20 weeks were compared. A total of 14 mice were treated for more than 20 weeks, 6 M4N-treated and 8 control mice. Since females generally eat less than males and have lower body weight, comparisons were drawn between mice of the same sex. […] The fact that the control mice, both male and female, consumed much more food than the M4N-treated mice evidences a greater preference for food in the control subjects.
# [7] = Fresh weights of isolated organs after 20 week feeding with fat-rich diet containing M4N; type: in vivo, mice
# Protocol: (§2) While no definite conclusions can be made regarding most organs due to the small size of the populations tested, a decrease in adipocyte (fat cells) weight was nevertheless significant (0.84 g vs. 0.196 g) following a 20 week feeding with a fat-rich diet containing M4N. In particular, fat tissues from two control mice (C24 and C25) which were fed a fat-rich diet without M4N were isolated and incubated with CREM solvent or with CREM solvent plus M4N for a total period of 6 days (first extract 72 hours and second extract for an additional 72 hours). The fat cell weights were measured at 0 time, the third day and the sixth day following incubation in CREM solvent and without M4N.
# fat tissues = experiment: Incubation of isolated fat tissue with CREM solvent plus M4N, fat weight; set-up: species or system mice
# Protocol: as §2
# [8] = dogs
# Protocol: In this example the Maximal Tolerable Dose (MTD) of two different formulations of M4N [Cremaphor-Ethanol (CET) or Dimethyl Sulfoxide (DMSO)] to male and female Beagle Dogs was determined.
# Dogs were treated prophylactically with an analgesic and antibiotic on the day of surgery and with antibiotics and/or analgesics following surgery (according to Gene Logic Inc. SOP Nos. 324.0.2, 325.0.1, and 326.0.2, as appropriate.) Other treatments were provided as recommended by the staff veterinarian. The catheter lines were flushed with saline during the postoperative recovery period with a frequency deemed appropriate by the Study Director.
# Thus the M4N-DMSO group animals were administered with M4N-DMSO with eight intravenous injections via the non-VAP jugular vein every 30 minutes over a 4-hour period. This frequency of delivery mimicked the delivery of the test article using the infusion pump.
# Animals from the CET group were observed during the entire infusion period and for at least one hour following end of infusion. The dogs in the DMSO group were observed throughout the jugular vein injection period and for at least one hour following the last (eighth) injection.
# [9] = Toxicokinetic (TK) analysis of M4N serum concentration; type: in vivo, Beagle Dogs; settings: dogs, CET or DMSO formulations, minimal toxicity
# Protocol: Blood samples from the CET group animals were collected via the jugular vein on Study Day (SD) 1, SD 3, SD 6, and SD 8 at the following time points: predose, 0.25, 0.5, 1, 2, 4, 8, and 16 hours following the completion of the approximate 4-hour infusion.
# Blood samples from the DMSO group animals were collected via the cephalic vein on SD 1, SD 3, SD 6, and SD 8 at the following time points: predose, 0.25, 0.5, 1, 2, 4, 8, and 16 hours following the final injection dose of M4N-DMSO.
# Blood samples collected from both groups of animals were processed for plasma and serum for TK analysis.
# The plasma and serum samples were sent to MedTox Laboratories, the Sponsor's designated laboratory for TK analysis. TK analysis of M4N plasma and serum concentration-time data was performed using a validated method (M200406) by MedTox Laboratories and analyzed by noncompartmental methods to obtain estimates of toxicokinetic parameters (where data allow), but not necessarily limited to, Cmax, Tmax and AUC.
# [10] = mouse, in vivo, ip
# Protocol: M4N Tissue Distribution Studies Using 3H—M4N. Harlan ICR mice or C3 cell-induced tumor-bearing C57bl/6 mice were injected via tail vein or intraperitoneally with 100 μL of Cremaphor-ethanol based solvent containing 100 μCi of tritiated M4N and 60 mM of cold M4N. At the specified time post-injection, the mice were sacrificed, the organs and blood were collected, weighed, then dissolved overnight in 4 M guanidine isothiocyanate (GITC). The insoluble pellet was then further extracted with EtOH. Tritium content of both the GITC extract and the EtOH extract was measured on a Packard scintillation counter and the quantity of M4N in each organ was calculated based on the specific activity of the inoculum.
# To determine the distribution of M4N in tissues over time following a single application, and also to assess the ability to deliver M4N to a distant tumor, six C3 cell-induced tumor bearing mice (A-F) were treated i.p. with ^3H— M4N as described above. At 4 hours, 6 hours, 18 hours, and 6 days post-injection, the quantities of ^3H— M4N in various tissues and the tumors were measured.
compound,measurement,setting,value
"CC(Cc1ccc(O)c(O)c1)C(C)Cc1ccc(O)c(O)c1 (stereo not drawn) [NDGA, nordihydroguaiaretic acid]",Inhibition of tumor growth,[1],Some evidence of inhibition of tumor growth
"C[C@H](Cc1ccc(OC(=O)CN(C)C)c(OC(=O)CN(C)C)c1)[C@@H](C)Cc1ccc(OC(=O)CN(C)C)c(OC(=O)CN(C)C)c1 [G4N, meso-1,4-bis[3,4-(dimethylaminoacetoxy)phenyl]-(2R,3S)-dimethylbutane]",Suppression of tumor growth,[2],some evidence of suppression of tumor growth
"COc1ccc(C[C@@H](C)[C@@H](C)Cc2ccc(OC)c(OC)c2)cc1OC [M4N, meso-1,4-bis(3,4-dimethoxyphenyl)-2,3-dimethylbutane]",M4N detected in heart or blood,[3],Little or no M4N
same,M4N present in liver and fat,[3],Significant quantities
same,Maximum amount of M4N which may be dissolved in the solvent,[4],20 mg/mL
same,M4N in each tissue,"[5]; 2 hours post-feeding, 30 mg M4N in castor oil, oral",< 2 ng per gram tissue
same,Time of peak M4N levels,"[5]; post-feeding, single oral 30 mg M4N",roughly 4 hours
same,Average % Weight Change,[6]; Female mice treated 20 weeks,24.9%
same,Average Amount of Food Consumed,[6]; Female mice treated 20 weeks,258.8 g
same,% Weight Change,[6]; length of treatment 8 weeks,20.5% and 18.1%
same,Weight on End Date,[6]; length of treatment 8 weeks,26.4 g and 24.1 g
same,Weight on End Date,[6]; length of treatment 9 weeks,18.9 g and 24.2 g and 19.7 g
same,% Weight Change,[6]; length of treatment 11 weeks,11.8%
same,Weight on End Date,[6]; length of treatment 11 weeks,20.8 g
same,Average % Weight Change,[6]; Male mice treated 20 weeks,21%
same,Average Amount of Food Consumed,[6]; Male mice treated 20 weeks,225 g and 225.0 g
same,Effect on appetite,"[6]; both male and female mice, long-term oral feeding",reduced the appetite
same,Effect on body weight,"[6]; mice, systemic or oral administration",caused weight loss
same,Toxic effects on female mice,"[6]; mouse, in vivo, po",did not have toxic effects
same,"Fresh organ weight, Bladder","[7]; Female, 20 week feeding",0.034 g
same,"Fresh organ weight, Caecum","[7]; Female, 20 week feeding",0.162 g
same,"Fresh organ weight, Colon","[7]; Female, 20 week feeding",0.195 g
same,"Fresh organ weight, Heart","[7]; Female, 20 week feeding",0.107 g
same,"Fresh organ weight, Kidney","[7]; Female, 20 week feeding",0.3 g
same,"Fresh organ weight, Liver","[7]; Female, 20 week feeding",1.153 g
same,"Fresh organ weight, Lung","[7]; Female, 20 week feeding",0.205 g
same,"Fresh organ weight, Pancreas","[7]; Female, 20 week feeding",0.18 g
same,"Fresh organ weight, Small Intestine","[7]; Female, 20 week feeding",1.193 g
same,"Fresh organ weight, Spleen","[7]; Female, 20 week feeding",0.08 g
same,"Fresh organ weight, Stomach","[7]; Female, 20 week feeding",0.243 g
same,"Fresh weight, Fat","[7]; Female, 20 week feeding",0.509 g
same,"Fresh organ weight, Bladder","[7]; Male, 20 week feeding",0.026 g
same,"Fresh organ weight, Caecum","[7]; Male, 20 week feeding",0.133 g
same,"Fresh organ weight, Colon","[7]; Male, 20 week feeding",0.186 g
same,"Fresh organ weight, Heart","[7]; Male, 20 week feeding",0.319 g
same,"Fresh organ weight, Kidney","[7]; Male, 20 week feeding",0.35 g
same,"Fresh organ weight, Liver","[7]; Male, 20 week feeding",1.44 g
same,"Fresh organ weight, Lung","[7]; Male, 20 week feeding",0.156 g
same,"Fresh organ weight, Pancreas","[7]; Male, 20 week feeding",0.121 g
same,"Fresh organ weight, Small Intestine","[7]; Male, 20 week feeding",1.44 g
same,"Fresh organ weight, Small Vesicles","[7]; Male, 20 week feeding",0.154 g
same,"Fresh organ weight, Spleen","[7]; Male, 20 week feeding",0.065 g
same,"Fresh organ weight, Stomach","[7]; Male, 20 week feeding",0.177 g
same,"Fresh organ weight, Testes","[7]; Male, 20 week feeding",0.189 g
same,"Fresh weight, Fat","[7]; Male, 20 week feeding with fat-rich diet",0.196 g
same,Fat Weight After First Extraction,"fat tissues; fat tissue of mouse C25, 72 hours in CREM solvent + 21.4 mg M4N",0.481 g
same,Fat Weight After Second Extraction,"fat tissues; fat tissue of mouse C25, additional 72 hours (6 days total) in CREM solvent + M4N",0.059 g
same,Dose safely administered by intravenous infusion over four hours,[8]; CET vehicle,up to 10 mg/kg
same,Dose safely administered by intravenous infusion over four hours,[8]; DMSO vehicle,up to 100 mg/kg
same,Blood levels of M4N achieved,[9],"up to 14,000 ng/ml"
same,M4N in the tumor,[10],294 ng M4N per gram of wet tumor
same,M4N tissue levels at 6 days post-injection relative to levels at 6 hours,[10],5-10%
same,Time of peak M4N tissue levels,[10],approximately 6 hours
same,Suppression of tumor growth,[2],some evidence of suppression of tumor growth
